Reference: patent US8013153B2, “Substituted pyrimidine kinase inhibitors” (Janssen Pharmaceutica, N.V., priority 2006, dated 2011)

Assays:
CDK1:Cyclin-B = molecular target: T1, CDK1:Cyclin-B (Homo sapiens, UniProt P06493); assay: CDK1 Screening Assay; assay type: biochemical
T1 construct: purchased New England Biolabs, Beverly, Mass; 6020; host or cells: insect cells

[1] = molecular target: T2, rat VEGF-R2 kinase domain (Rattus norvegicus, UniProt O08775); assay: VEGF-R2 Screening Assay; assay type: biochemical; conditions: > means no observed 50% inhibition at the indicated test concentration; ~ means approximately 50% inhibition at that concentration; read-out: IC50 VEGF-R2
T2 construct: amino acids 786-1343 of the rat VEGF-R2 kinase domain; polyhistidine (N)
T2 sequence (O08775 786-1343): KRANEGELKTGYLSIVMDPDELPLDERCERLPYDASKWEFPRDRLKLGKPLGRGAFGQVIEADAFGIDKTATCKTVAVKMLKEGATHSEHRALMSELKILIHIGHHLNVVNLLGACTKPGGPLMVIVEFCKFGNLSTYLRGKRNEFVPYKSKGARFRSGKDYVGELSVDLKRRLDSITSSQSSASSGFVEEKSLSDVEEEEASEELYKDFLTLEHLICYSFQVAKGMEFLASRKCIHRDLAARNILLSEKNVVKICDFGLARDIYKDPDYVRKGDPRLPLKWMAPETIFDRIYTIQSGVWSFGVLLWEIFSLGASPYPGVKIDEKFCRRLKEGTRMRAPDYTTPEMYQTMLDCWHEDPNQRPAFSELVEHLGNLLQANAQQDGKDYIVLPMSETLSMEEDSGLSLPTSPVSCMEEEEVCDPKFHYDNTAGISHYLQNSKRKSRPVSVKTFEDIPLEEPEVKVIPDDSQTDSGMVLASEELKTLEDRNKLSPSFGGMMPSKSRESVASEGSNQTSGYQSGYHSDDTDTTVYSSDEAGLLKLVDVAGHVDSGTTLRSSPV

murine Aurora-A = molecular target: T3, murine Aurora-A (Mus musculus, UniProt P97477); assay: Aurora-A Screening Assay; assay type: biochemical
T3 construct: replaced with the full length protein encoding the murine Aurora-A; made in house; host or cells: sf9 insect cells
T3 sequence (P97477 1-395): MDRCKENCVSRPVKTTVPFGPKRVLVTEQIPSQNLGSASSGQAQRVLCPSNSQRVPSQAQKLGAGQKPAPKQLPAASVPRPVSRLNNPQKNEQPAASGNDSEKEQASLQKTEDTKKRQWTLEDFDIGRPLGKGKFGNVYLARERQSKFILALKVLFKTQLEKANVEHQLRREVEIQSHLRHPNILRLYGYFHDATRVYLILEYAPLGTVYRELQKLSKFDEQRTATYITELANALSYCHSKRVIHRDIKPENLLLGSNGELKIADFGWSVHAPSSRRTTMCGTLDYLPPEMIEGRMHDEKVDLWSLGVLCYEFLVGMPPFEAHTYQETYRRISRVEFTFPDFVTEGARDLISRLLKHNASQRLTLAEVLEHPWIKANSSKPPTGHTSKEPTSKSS

HER2 cytoplasmic domain = molecular target: T4, HER2 cytoplasmic domain (Homo sapiens, UniProt P04626); assay: HER2 Kinase Screening Assay; assay type: biochemical; conditions: > means no observed 50% inhibition at the indicated test concentration; ~ means approximately 50% inhibition at that concentration
T4 construct: polyhistidine (N)
T4 sequence (P04626 676-1255 limits assumed): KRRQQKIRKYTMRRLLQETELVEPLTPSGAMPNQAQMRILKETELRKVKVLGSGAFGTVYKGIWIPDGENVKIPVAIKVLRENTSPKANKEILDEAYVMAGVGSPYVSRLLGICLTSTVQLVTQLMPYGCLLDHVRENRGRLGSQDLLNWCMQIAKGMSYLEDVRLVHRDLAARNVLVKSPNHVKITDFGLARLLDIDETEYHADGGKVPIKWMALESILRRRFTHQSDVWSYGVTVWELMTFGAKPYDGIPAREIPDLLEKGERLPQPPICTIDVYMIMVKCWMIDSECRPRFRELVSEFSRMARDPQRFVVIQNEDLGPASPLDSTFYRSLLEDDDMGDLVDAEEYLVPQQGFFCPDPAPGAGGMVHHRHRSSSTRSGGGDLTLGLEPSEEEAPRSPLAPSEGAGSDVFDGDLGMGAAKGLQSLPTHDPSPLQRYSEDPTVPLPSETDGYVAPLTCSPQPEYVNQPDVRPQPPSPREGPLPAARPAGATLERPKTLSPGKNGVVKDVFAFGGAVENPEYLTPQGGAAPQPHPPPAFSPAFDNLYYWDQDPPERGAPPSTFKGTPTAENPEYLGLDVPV

RET cytoplasmic domain = molecular target: T5, RET cytoplasmic domain (Homo sapiens, UniProt P07949); assay: RET Kinase Screening Assay; assay type: biochemical
T5 construct: the RET cytoplasmic domain consisting of the last 492 amino acids of the intracellular domain; histidine tag (N); made in house; host or cells: Hi5 insect cells
T5 sequence (P07949 658-1114 limits assumed): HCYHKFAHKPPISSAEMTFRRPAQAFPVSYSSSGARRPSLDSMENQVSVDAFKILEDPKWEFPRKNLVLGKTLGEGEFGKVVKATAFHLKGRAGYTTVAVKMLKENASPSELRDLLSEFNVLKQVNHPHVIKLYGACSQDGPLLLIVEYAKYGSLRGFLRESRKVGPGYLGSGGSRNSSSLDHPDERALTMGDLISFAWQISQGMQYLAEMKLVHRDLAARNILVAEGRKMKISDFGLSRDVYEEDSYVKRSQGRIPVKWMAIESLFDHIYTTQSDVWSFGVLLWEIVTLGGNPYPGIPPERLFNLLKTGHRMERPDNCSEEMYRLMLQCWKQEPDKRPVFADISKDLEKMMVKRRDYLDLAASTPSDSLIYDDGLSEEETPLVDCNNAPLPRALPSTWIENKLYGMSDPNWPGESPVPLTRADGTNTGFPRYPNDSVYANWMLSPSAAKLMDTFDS

[2] = tested on: HeLa cervical adenocarcinoma; assay: Inhibition of in vitro cell proliferation (HeLa); assay type: cell-based, human; conditions: Homo sapiens, 14C-thymidine incorporation;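 note: cells exposed to compound for 24 h, then labelled 24 h with methyl 14C-thymidine, with uptake into DNA counted by scintillation against DMSO-only control wells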
HCT-116 colon carcinoma = assay: Inhibition of in vitro cell proliferation (HCT116); assay type: cell-based, human; conditions: Homo sapiens, HCT-116, 14C-thymidine incorporation;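 note: cells exposed to compound for 24 h, then 14C-thymidine added for a further 24 h and its uptake into DNA counted by scintillation, DMSO-only wells as control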
A375 malignant melanoma = assay: Inhibition of in vitro cell proliferation (A375); assay type: cell-based, human; conditions: Homo sapiens, A-375, 14C-thymidine incorporation;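 note: cells plated for 24 h, given compound for 24 h, then labelled with 14C-thymidine for another 24 h, with DMSO-only wells as control and counts read by scintillation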

T1 sequence (P06493 whole entry): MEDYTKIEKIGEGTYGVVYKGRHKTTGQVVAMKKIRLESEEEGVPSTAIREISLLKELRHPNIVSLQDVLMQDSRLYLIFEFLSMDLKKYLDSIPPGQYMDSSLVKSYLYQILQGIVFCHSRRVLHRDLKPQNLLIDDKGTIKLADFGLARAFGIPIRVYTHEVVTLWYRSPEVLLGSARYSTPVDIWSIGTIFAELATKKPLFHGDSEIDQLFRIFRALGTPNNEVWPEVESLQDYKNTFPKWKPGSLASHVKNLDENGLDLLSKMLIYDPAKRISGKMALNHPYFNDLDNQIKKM
T1 sequence (P14635 whole entry partner): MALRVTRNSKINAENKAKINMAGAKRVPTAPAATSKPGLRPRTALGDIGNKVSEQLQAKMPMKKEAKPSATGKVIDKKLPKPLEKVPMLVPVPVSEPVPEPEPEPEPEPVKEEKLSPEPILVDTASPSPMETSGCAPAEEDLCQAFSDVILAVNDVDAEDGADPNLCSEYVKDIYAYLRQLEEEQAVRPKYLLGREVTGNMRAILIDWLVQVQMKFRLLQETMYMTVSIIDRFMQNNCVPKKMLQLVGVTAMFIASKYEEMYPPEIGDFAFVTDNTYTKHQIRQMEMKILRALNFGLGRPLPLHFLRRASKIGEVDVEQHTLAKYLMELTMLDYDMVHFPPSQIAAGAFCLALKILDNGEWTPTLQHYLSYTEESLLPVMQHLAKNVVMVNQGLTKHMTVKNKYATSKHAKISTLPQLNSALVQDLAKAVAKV

IC50 (CDK1:Cyclin-B) | IC50 [1] | IC50 (murine Aurora-A) | IC50 (HER2 cytoplasmic domain) | IC50 (RET cytoplasmic domain) | IC50 [2] | IC50 (HCT-116 colon carcinoma) | IC50 (A375 malignant melanoma) | Structure (SMILES)
> 100 µM | > 100 µM | > 100 µM | > 100 µM | > 100 µM | > 10 µM | > 10 µM | > 10 µM | CNc1ncnc(Oc2ccc3[nH]ccc3c2)c1C=NOC [Cpd 3, 4-(1H-indol-5-yloxy)-6-methylamino-pyrimidine-5-carbaldehyde O-methyl-oxime]
> 100 µM | 0.082 µM | > 100 µM | 1.78 µM | 8.32 µM | > 10 µM | > 10 µM | > 10 µM | CC(=O)N1CCN(CCCON=Cc2c(N)ncnc2Oc2ccc3[nH]c(C)cc3c2F)CC1 [Cpd 23, 4-amino-6-(4-fluoro-2-methyl-1H-indol-5-yloxy)-pyrimidine-5-carbaldehyde O-[3-(4-acetyl-piperazin-1-yl)-propyl]-oxime]
> 100 µM | ~0.1 µM | > 100 µM | 1.23 µM | 3.58 µM | 4.91 µM | 9.24 µM | 3.82 µM | Cc1cc2c(F)c(Oc3ncnc(N)c3C=NOCCCN3CCOCC3)ccc2[nH]1 [Cpd 19, 4-amino-6-(4-fluoro-2-methyl-1H-indol-5-yloxy)-pyrimidine-5-carbaldehyde O-(3-morpholin-4-yl-propyl)-oxime]
> 100 µM | 0.001 µM | > 100 µM | ~100 µM | ~10 µM | 2.98 µM | 3.14 µM | 1.39 µM | CNC(=O)n1c(C)cc2cc(Oc3ncnc(N)c3C=NOC)ccc21 [Cpd 49, 5-[6-amino-5-(methoxyimino-methyl)-pyrimidin-4-yloxy]-2-methyl-indole-1-carboxylic acid methylamide]
> 100 µM | 0.233 µM | > 10 µM | > 100 µM | > 10 µM | > 10 µM | > 10 µM | > 10 µM | CNC(=O)Nc1ccc(Oc2ncnc(N)c2C=NOC)cc1 [Cpd 68, 1-{4-[6-amino-5-(methoxyimino-methyl)-pyrimidin-4-yloxy]-phenyl}-3-methyl-urea]
> 100 µM | 0.0424 µM |  | > 10 µM | > 10 µM | > 10 µM | > 10 µM | > 1 µM | CON=Cc1c(N)ncnc1Oc1ccc2c(c1)cc(C)n2C(=O)NCCN(C)C [Cpd 41, 5-[6-amino-5-(methoxyimino-methyl)-pyrimidin-4-yloxy]-2-methyl-indole-1-carboxylic acid (2-dimethylamino-ethyl)-amide]
> 100 µM | 0.045 µM | > 100 µM | 1.41 µM | 2.77 µM | > 10 µM | > 10 µM | > 10 µM | Cc1cc2c(F)c(Oc3ncnc(N)c3C=NOCCCN3CCN(S(C)(=O)=O)CC3)ccc2[nH]1 [Cpd 22, 4-amino-6-(4-fluoro-2-methyl-1H-indol-5-yloxy)-pyrimidine-5-carbaldehyde O-[3-(4-methanesulfonyl-piperazin-1-yl)-propyl]-oxime]
> 100 µM | 4.77 µM | > 100 µM | > 10 µM | ~100 µM | > 10 µM | 38.3 µM | > 10 µM | CON=Cc1c(NOC)ncnc1Oc1ccc2[nH]ccc2c1 [Cpd 4, 4-(1H-indol-5-yloxy)-6-methoxyamino-pyrimidine-5-carbaldehyde O-methyl-oxime]
> 100 µM | 0.033 µM | ~10 µM | ~10 µM | > 10 µM | 0.472 µM | 1.14 µM | 0.492 µM | Cc1cc2c(F)c(Oc3ncnc(N)c3/C=N/O)ccc2[nH]1 [Cpd 27, 4-amino-6-(4-fluoro-2-methyl-1H-indol-5-yloxy)-pyrimidine-5-carbaldehyde oxime]
> 100 µM | 0.18 µM | > 100 µM | > 100 µM | > 10 µM | > 100 µM | > 100 µM | > 100 µM | CCNC(=O)Nc1ccc(Oc2ncnc(N)c2C=NOC)cc1C [Cpd 66, 1-{4-[6-amino-5-(methoxyimino-methyl)-pyrimidin-4-yloxy]-2-methyl-phenyl}-3-ethyl-urea]
> 100 µM |  | > 100 µM | > 100 µM | > 100 µM | 0.266 µM | 0.311 µM | 0.062 µM | Cc1cc2c(F)c(Oc3ncnc(N)c3C=NOCc3ccccc3)ccc2[nH]1 [Cpd 36, 4-amino-6-(4-fluoro-2-methyl-1H-indol-5-yloxy)-pyrimidine-5-carbaldehyde O-benzyl-oxime]
> 100 µM |  | > 100 µM | > 100 µM | > 100 µM | 0.607 µM | 3 µM | 0.446 µM | CCCCON=Cc1c(N)ncnc1Oc1ccc2[nH]c(C)cc2c1F [Cpd 37, 4-amino-6-(4-fluoro-2-methyl-1H-indol-5-yloxy)-pyrimidine-5-carbaldehyde O-butyl-oxime]
> 100 µM |  | > 100 µM | 0.653 µM | > 0.1 µM | 0.401 µM | 0.365 µM | 0.492 µM | CON=Cc1c(N)ncnc1Oc1ccc2[nH]ccc2c1F [Cpd 7, 4-amino-6-(4-fluoro-1H-indol-5-yloxy)-pyrimidine-5-carbaldehyde O-methyl-oxime]
> 100 µM |  | > 10 µM | 0.697 µM | 2.23 µM | 1.87 µM | 3.52 µM | 0.783 µM | CO/N=C/c1c(N)ncnc1Oc1ccc2[nH]ccc2c1 [Cpd 10, 4-amino-6-(1H-indol-5-yloxy)-pyrimidine-5-carbaldehyde O-methyl-oxime]
> 100 µM |  | ~100 µM | > 10 µM | > 100 µM | 4.22 µM | 4.61 µM | 2.16 µM | Cc1cc2c(F)c(Oc3ncnc(N)c3C=NOCCN3CCCC3)ccc2[nH]1 [Cpd 13, 4-amino-6-(4-fluoro-2-methyl-1H-indol-5-yloxy)-pyrimidine-5-carbaldehyde O-(2-pyrrolidin-1yl-ethyl)-oxime]
> 100 µM |  | > 10 µM | 4.63 µM | > 10 µM | 0.362 µM | 0.452 µM | 0.336 µM | Cc1cc2c(F)c(Oc3ncnc(N)c3C=NOCCCO)ccc2[nH]1 [Cpd 29, 4-amino-6-(4-fluoro-2-methyl-1H-indol-5-yloxy)-pyrimidine-5-carbaldehyde O-(3-hydroxy-propyl)-oxime]
> 100 µM |  | > 100 µM | > 100 µM | ~10 µM | 0.04 µM | 0.03 µM | 0.028 µM | CCCON=Cc1c(N)ncnc1Oc1ccc2[nH]c(C)cc2c1F [Cpd 34, 4-amino-6-(4-fluoro-2-methyl-1H-indol-5-yloxy)-pyrimidine-5-carbaldehyde O-propyl-oxime]

Structure (SMILES) | IC50 (CDK1:Cyclin-B) | IC50 [1] | IC50 (murine Aurora-A) | IC50 (HER2 cytoplasmic domain) | IC50 (RET cytoplasmic domain) | IC50 [2] | IC50 (HCT-116 colon carcinoma) | IC50 (A375 malignant melanoma)
CCNC(=O)Nc1ccc(Oc2ncnc(N)c2C=NOC)cc1 [Cpd 69, 1-{4-[6-amino-5-(methoxyimino-methyl)-pyrimidin-4-yloxy]-phenyl}-3-ethyl-urea] | > 100 µM | 0.142 µM | > 10 µM | > 100 µM | > 10 µM | > 10 µM | > 10 µM | > 10 µM
CNC(=O)Nc1ccc(Oc2ncnc(N)c2C=NOC)cc1Cl [Cpd 51, 1-{4-[6-amino-5-(methoxyimino-methyl)-pyrimidin-4-yloxy]-2-chloro-phenyl}-3-methyl-urea] | > 100 µM | 0.025 µM | > 100 µM | > 100 µM | ~1 µM | 3.75 µM | 4.21 µM | 4.09 µM
